We go through 20 molecules from patent US20230312564A1, “AROMATIC RING-LACTAM COMPOUND, PREPARATION METHOD THEREFOR AND USE THEREOF” (SHANGHAI RINGENE BIOPHARMA CO., LTD., priority 2020, published 2023).

Where two headings read alike, the source gives them in different places.

The target of one data set is T1, ERK1/2 kinase.
T1 construct: fused on or other part: Carna's ERK products carry a GST tag by vendor knowledge
The data set can be described thus: ERK1/2 kinase (Carna) inhibitory activity, Caliper mobility shift. It is filed as biochemical. The following applies: for IC50: read-out: ERK½ IC50. How it is done: (1) Preparation of 1×Kinase buffer; (2) preparation of compound concentration gradient: the initial test concentration of the tested compound was 10 μM, which was 3-fold diluted to 10 concentrations, and a duplicate test was conducted, and then the tested compound was diluted in a 96 well plate to a 100-fold final concentration of 10 different concentrations of solution. […] Log (inhibitor) vs. response—Variable slope of the analysis software GraphPad Prism 5 was used to fit the dose-effect curve to obtain the IC50 value of each compound on the enzyme activity.
2. […] (A<10 nM, 10 nM≤B<200 nM, C≥200 nM)

In another data set the test system is Colo-205 cells. The data set can be described thus: Colo-205 tumor cell proliferation, CCK-8, 72 hours. It is filed as cell-based. The following applies: for IC50: 72 hours, CCK-8, read-out: Colo-205 IC50; for cell proliferation inhibitory activity (in words): Colo-205. On the procedure: 1. Test method: Colo-205 cells (ATCC) in logarithmic growth phase were inoculated into a 96-well culture plate at an appropriate density with 90 μL per well. After overnight culture, different concentrations of the compound were added and acted for 72 hours, and a solvent control group (negative control) was set. After the compound was acted on cells for 72 hours, the effect of the compound on cell proliferation was detected by the cell counting kit CCK-8 (Dojindo), and 10 μL of CCK-8 reagent was added to each well. After the plate was placed in a 37° C. incubator for 2 to 4 hours, a full-wavelength microplate reader SpectraMax 190 was adopted for obtaining the readings with a measured wavelength of 450 nm. […] The IC50 value was obtained by four-parameter regression with the software attached to the microplate reader.

Data set [1] in a line: In-vivo pharmacokinetic parameters in mice. Also noted: species or system Balb-c mice. The following applies: for F: PO 5 mg/kg vs IV 1 mg/kg; for AUC(0-inf) / AUC(0-t) / MRT inf / clearance / half-life / Vd / Cmax / Tmax: male, Balb-c, mouse, plasma; for Vd: read-out: Vss. On the procedure: Six male SPF grade SD rats or Balb-c mice (Shanghai Sipple-Bikai Laboratory Animal) were divided into two groups, and the tested compounds were prepared into appropriate solutions or suspensions; one group was administered intravenously (with a dose of 1 mg/kg), and the other group was administered orally (with a dose of 5 mg/kg). Blood samples were collected by jugular vein puncture, and each sample was collected with a volume of about 0.2 mL/time point, and heparin sodium was used for anticoagulation. The time points of blood collection were listed below: 5, 15 and 30 min […], 1, 2, 4, 6, 8 and 24 h after administration; the collected blood samples were placed on ice and centrifuged to separate plasma (centrifugation conditions: 8,000 rpm, 6 min, 2 to 8° C.), and the collected plasma was stored at −80° C. before analysis. Plasma samples were analyzed by LC-MS/MS.
The pharmacokinetic parameters such as AUC0-t, AUC0-∞, MRT0-∞, Cmax, Tmax, T1/2 and Vd of the tested compounds and their mean values and standard deviations were calculated by the pharmacokinetic calculation software WinNonlin5.2 non-compartmental model according to the plasma concentration data. In addition, the bioavailability (F) was calculated by the following formula.
For samples with concentrations below the lower limit of quantitation, while pharmacokinetic parameter calculations were performed, samples sampled before Cmax was reached should be calculated as a zero value and samples sampled after Cmax was reached should be calculated as below limit of quantitation (BLQ).

[2] abbreviates: Homo sapiens, COLO 205, class symbols.
The mark [3] stands for this setting: Homo sapiens, COLO 205, numeric values.

The term IC50 denotes the concentration that gives 50% inhibition. On to `Cc1cccc([C@@H](CO)NC(=O)[C@@H](C)N2Cc3ccc(-c4cc(NC5CCOCC5)ncn4)c(F)c3C2=O)c1` [Embodiment 6], for which the IC50 on ERK1/2 kinase (class symbols) is < 0.01 µM; in the data set with Colo-205 cells (setting [2]) it was < 0.1 µM.
`Cc1cccc([C@@H](CO)NC(=O)[C@@H](C)N2Cc3ccc(-c4cc(NC5CCOCC5)ncn4)nc3C2=O)c1` [Embodiment 7]: the values for the IC50 on ERK1/2 kinase (class symbols) and in the data set with Colo-205 cells (setting [2]) were 0.01 to 0.2 µM and 0.1 to 1 µM, respectively.
As to `Cc1cccc([C@@H](CO)NC(=O)[C@@H](C)N2Cc3ccc(-c4ccnc(NC5CC(F)(F)C5)c4)c(F)c3C2=O)c1` [Embodiment 8], the half-maximal inhibitory concentration (IC50) is < 0.01 µM at ERK1/2 kinase (class symbols) and < 0.1 µM in the data set with Colo-205 cells (setting [2]). The “cell proliferation inhibitory activity (in words)” value in the data set with Colo-205 cells is “strong cell proliferation inhibitory activity”.
`Cc1cccc([C@@H](CO)NC(=O)[C@@H](C)N2Cc3ccc(-c4nc(Nc5ccnn5C)ncc4Cl)nc3C2=O)c1` [Embodiment 9]: the IC50 on ERK1/2 kinase (class symbols) was < 0.01 µM; in the data set with Colo-205 cells (setting [2]), 0.1 to 1 µM.
Turning to `Cc1cccc([C@@H](CO)NC(=O)[C@@H](C)N2Cc3ccc(-c4nc(NC5CC(F)(F)C5)ncc4Cl)nc3C2=O)c1` [Embodiment 10], the figures for the IC50 at ERK1/2 kinase (numeric values) and in the data set with Colo-205 cells (setting [2]) were 0.013 µM and 0.1 to 1 µM, respectively.
With `Cc1cccc([C@@H](CO)NC(=O)[C@@H](C)N2Cc3ccc(-c4nc(N[C@H]5CCOC5)ncc4Cl)nc3C2=O)c1` [Embodiment 11], the IC50 is 0.0083 µM on ERK1/2 kinase (numeric values) and 0.1 to 1 µM in the data set on Colo-205 cells (setting [2]).
In the case of `Cc1cccc([C@@H](CO)NC(=O)[C@@H](C)N2Cc3ccc(-c4nc(Nc5ccc(F)c(N6CCOCC6)c5)ncc4Cl)nc3C2=O)c1` [Embodiment 12], the IC50 on ERK1/2 kinase (numeric values) was 0.012 µM; in the data set on Colo-205 cells (setting [2]), 0.1 to 1 µM.
For the molecule `Cc1cccc([C@@H](CO)NC(=O)[C@@H](C)N2Cc3ccc(-c4cc(NC5CCOCC5)ncc4Cl)nc3C2=O)c1` [Embodiment 13], the IC50 lay within 0.01 to 0.2 µM on ERK1/2 kinase (class symbols) and 0.1 to 1 µM in the data set with Colo-205 cells (setting [2]).
For `Cc1cccc([C@@H](CO)NC(=O)[C@@H](C)N2Cc3ccc(-c4cc(NC5CCOCC5)ncc4C)nc3C2=O)c1` [Embodiment 14], the IC50 at ERK1/2 kinase (class symbols) lay within 0.01 to 0.2 µM; in the data set with Colo-205 cells (setting [2]), 0.1 to 1 µM.
With `Cc1cccc([C@@H](CO)NC(=O)[C@@H](C)N2Cc3ccc(-c4cc(Nc5ccnn5C)ncc4F)nc3C2=O)c1` [Embodiment 15], the results for the IC50 at ERK1/2 kinase (class symbols) and in the data set with Colo-205 cells (setting [2]) were 0.01 to 0.2 µM and 0.1 to 1 µM, respectively.
`Cc1cccc([C@@H](CO)NC(=O)[C@@H](C)N2Cc3ccc(-c4ccnc(Nc5ccnn5C)n4)nc3C2=O)c1` [Embodiment 16]: the values for the IC50 at ERK1/2 kinase (class symbols) and with Colo-205 cells (setting [2]) were < 0.01 µM and < 0.1 µM, respectively.
With `Cc1cccc([C@@H](CO)NC(=O)[C@@H](C)N2Cc3ccc(-c4nc(NC5COC5)ncc4Cl)nc3C2=O)c1` [Embodiment 17], the results for the IC50 at ERK1/2 kinase (numeric values) and in the data set with Colo-205 cells (setting [2]) were 0.0052 µM and 0.1 to 1 µM, respectively.
Take `C[C@H](C(=O)N[C@H](CO)c1ccc(F)c(Cl)c1)N1Cc2ccc(-c3nc(NC4CCOCC4)ncc3Cl)nc2C1=O` [Embodiment 19]: the results for the IC50 at ERK1/2 kinase (numeric values) and in the data set on Colo-205 cells (setting [3]) were 0.0048 µM and 0.202 µM, respectively.
Turning to `C[C@H](C(=O)N[C@H](CO)c1cccc(F)c1)N1Cc2ccc(-c3nc(NC4CCOCC4)ncc3Cl)nc2C1=O` [Embodiment 20], the “enzyme inhibitory activity (in words)” value in the data set on ERK1/2 kinase is listed as “extremely strong enzyme inhibitory activity”. The IC50 at ERK1/2 kinase (numeric values) is 0.0018 µM; with Colo-205 cells (setting [3]), 0.246 µM.
Turning to `Cc1cccc([C@@H](CO)NC(=O)[C@@H](C)N2Cc3ccc(-c4ccnc(NC5CCOCC5)c4)c(F)c3C2=O)c1` [Embodiment 22], the “enzyme inhibitory activity (in words)” value in the data set on ERK1/2 kinase is “extremely strong enzyme inhibitory activity”. In addition, the IC50 at ERK1/2 kinase (numeric values) came to 0.0013 µM; in the data set with Colo-205 cells (setting [3]), 0.0677 µM. The “cell proliferation inhibitory activity (in words)” value in the data set with Colo-205 cells is on record as “strong cell proliferation inhibitory activity”.
Usually AUC(0-inf) stands for the area under the concentration-time curve extrapolated to infinity. Higher therefore signals high exposure. A word on the AUC(0-t): it is exposure summed from dosing to a finite time, without extrapolation to infinity. Low values mean low exposure, high ones high exposure. As usually defined, the MRT inf is a mean duration of stay, worked out from the concentration-time curve. For orientation: clearance means the rate of elimination divided by the concentration. Read a low clearance as inefficient removal. One may read the half-life as how long it takes for the measured level to halve. High values mean slow decline, low ones rapid decline. Broadly, the Cmax is the peak of the concentration-time curve. By Tmax is commonly meant the time from dosing to the highest level. Molecule `Cc1cccc([C@@H](CO)NC(=O)[C@@H](C)N2Cc3ccc(-c4nc(NC5CCOCC5)ncc4Cl)c(F)c3C2=O)c1` [Embodiment 25, (R)-2-(6-(5-Chloro-2-((tetrahydro-2H-pyran-4-yl)amino)pyrimidin-4-yl)-7-fluoro-1-oxoisoindolin-2-yl)-N—((S)-2-hydroxy-1-(m-tolyl)ethyl)propanamide] had a F in data set [1] of 43%. Moreover, in data set [1] (IV, 1 mg/kg), the AUC(0-inf) was found to be 0.368 µM·h, the AUC(0-t) was found to be 0.364 µM·h, the MRT inf is 18 min and the clearance turned out to be 80 mL/min/kg. Also, in data set [1] (IV, 1 mg/kg), the half-life was 42 min and the Vd is 1.6 L/kg. In data set [1] (PO, 5 mg/kg), the AUC(0-inf) turned out to be 0.796 µM·h, the AUC(0-t) stood at 0.776 µM·h, the Cmax was 955 nM and the Tmax was 18 min. This molecule also gave a half-life in data set [1] (PO, 5 mg/kg) of 102 min.
`Cc1cccc([C@@H](CO)NC(=O)[C@@H](C)N2Cc3ccc(-c4nc(Nc5ccnn5C)ncc4Cl)c(F)c3C2=O)c1` [Embodiment 32, (R)-2-(6-(5-Chloro-2-((1-methyl-1H-pyrazol-5-yl)amino)pyrimidin-4-yl)-7-fluoro-1-oxoisoindolin-2-yl)-N—((S)-2-hydroxy-1-(m-tolyl)ethyl)propanamide] returned a F in data set [1] of 26%. In data set [1] (IV, 1 mg/kg), this molecule gave an AUC(0-inf) of 0.272 µM·h, an AUC(0-t) of 0.268 µM·h, an MRT inf of 24 min and a clearance of 110 mL/min/kg. In data set [1] (IV, 1 mg/kg), the half-life was 60 min and the Vd was determined as 2.7 L/kg. Besides, in data set [1] (PO, 5 mg/kg), the AUC(0-inf) was 0.347 µM·h, the AUC(0-t) came to 0.338 µM·h, the concentration peaked (Cmax) at 357 nM and the time of peak concentration (Tmax) amounted to 30 min. The same molecule had a half-life in data set [1] (PO, 5 mg/kg) of 90 min.
`COc1cc(F)cc([C@@H](CO)NC(=O)[C@@H](C)N2Cc3ccc(-c4nc(NC5CCOCC5)ncc4Cl)c(F)c3C2=O)c1` [Embodiment 33, (R)-2-(6-(5-Chloro-2-((tetrahydro-2H-pyran-4-yl)amino)pyrimidin-4-yl)-7-fluoro-1-oxoisoindolin-2-yl)-N—((S)-1-(3-fluoro-5-methoxyphenyl)-2-hydroxyethyl)propanamide]: the F in data set [1] was determined as 25%. For the same molecule, in data set [1] (IV, 1 mg/kg), the AUC(0-inf) was 0.276 µM·h, the AUC(0-t) was determined as 0.274 µM·h, the MRT inf was 12 min and the clearance was found to be 102 mL/min/kg. In data set [1] (IV, 1 mg/kg), the half-life was 24 min and the Vd was found to be 1.3 L/kg. For the same molecule, in data set [1] (PO, 5 mg/kg), the total exposure AUC(0-inf) came out at 0.338 µM·h, the AUC(0-t) amounted to 0.322 µM·h, the Cmax was found to be 441 nM and the Tmax is 18 min. This molecule showed a half-life in data set [1] (PO, 5 mg/kg) of 90 min.
`C[C@H](C(=O)N[C@H](CO)c1cccc(Cl)c1)N1Cc2ccc(-c3nc(NC4CCOCC4)ncc3Cl)c(F)c2C1=O` [Embodiment 34, (R)-2-(6-(5-Chloro-2-((tetrahydro-2H-pyran-4-yl)amino)pyrimidin-4-yl)-7-fluoro-1-oxoisoindolin-2-yl)-N—((S)-1-(3-chlorophenyl)-2-hydroxyethyl)propanamide]: the F in data set [1] turned out to be 19%. In data set [1] (IV, 1 mg/kg), this molecule yielded an AUC(0-inf) of 0.83 µM·h, an exposure AUC(0-t) of 0.825 µM·h, an MRT inf of 18 min and a clearance of 34 mL/min/kg. Further, in data set [1] (IV, 1 mg/kg), the half-life was 48 min and the Vd stood at 0.7 L/kg. For the same molecule, in data set [1] (PO, 5 mg/kg), the area under the curve AUC(0-inf) came out at 0.806 µM·h, the AUC(0-t) was 0.797 µM·h, the concentration peaked (Cmax) at 791 nM and the Tmax was determined as 18 min. For the same molecule, the half-life in data set [1] (PO, 5 mg/kg) is 90 min.
Regarding “(R)-2-(3-(5-Chloro-2-((tetrahydro-2H-pyran-4-yl)amino)pyrimidin-4-yl)-5-oxo-5,7-dihydro-6H-pyrrolo[3,4-b]pyridin-6-yl)-N—((S)-2-hydroxy-1-(m-tolyl)ethyl)propanamide [Comparative compound 3, reference compound]”, in the data set with Colo-205 cells (class symbols), the half-maximal inhibitory concentration (IC50) is > 1 µM.
